Measurements from ChEMBL document CHEMBL5126564, “Design, synthesis and biological evaluation of chromone derivatives as novel protein kinase CK2 inhibitors” (Bioorg Med Chem Lett, 2022).
Activity calls are given as the source filed them. The rule behind the calls is not given here.

Assays:
[1] = biological target: T1, Casein kinase 2 (Homo sapiens, UniProt P67870+P68400+P19784+Q8NEV1); assay: Inhibition of CK2 (unknown origin); type: protein assay
[2] = test system: HL-60; assay: Antiproliferative activity against human HL-60 cells assessed as cell viability after 48 hrs by CCK-8 assay; type: functional, cell-based; settings: HL-60, 48 h
[3] = test system: A549; assay: Antiproliferative activity against human A549 cells assessed as cell viability after 48 hrs by CCK-8 assay; type: functional, cell-based; settings: A549, 48 h
[4] = test system: HepG2; assay: Antiproliferative activity against human HepG2 cells assessed as cell viability after 48 hrs by CCK-8 assay; type: functional, cell-based; settings: HepG2, 48 h
[5] = test system: SK-OV-3; assay: Antiproliferative activity against human SK-OV-3 cells assessed as cell viability after 48 hrs by CCK-8 assay; type: functional, cell-based; settings: SK-OV-3, 48 h
[6] = Cytotoxicity against human MSC assessed as cell viability after 48 hrs by CCK-8 assay; type: toxicity, cell-based; settings: mesenchymal stem cells (MSC)
[7] = biological target: T1, Casein kinase 2; assay: Binding affinity to CK2 (unknown origin) by cellular thermal shift assay; type: protein assay
[8] = test system: HL-60; assay: Induction of apoptosis in human HL-60 cells measured after 48 hrs by flow cytometry; type: functional, cell-based; settings: DDE = dose-dependent effect
[9] = test system: HL-60; assay: Induction of apoptosis in human HL-60 cells assessed as early apoptotic cells at 1 uM measured after 48 hrs by flow cytometry relative to control; type: functional
[10] = test system: HL-60; assay: Induction of cell cycle arrest in human HL-60 cells assessed as increase number of cells at G0/G1 phase at 0.1 to 1 uM measured after 12 to 48 hrs by flow cytometry; type: functional, cell-based; settings: dose 0.1-1 µM, time 12-48 hrs, DDE = dose-dependent effect
[11] = biological target: T1, Casein kinase 2; assay: Inhibition of CK2 in human HL-60 cells assessed as decrease in p-alpha-catenin level at 0.1 to 1 uM by Western blot analysis; type: cell-based; settings: dose 0.1-1 µM
[12] = biological target: T1, Casein kinase 2; assay: Inhibition of CK2 in human HL-60 cells assessed as decrease in p-Akt (S129) level at 0.1 to 1 uM by Western blot analysis; type: cell-based; settings: dose 0.1-1 µM
[13] = biological target: T1, Casein kinase 2; assay: Inhibition of CK2 in human HL-60 cells assessed as decrease in p-p21 level at 0.1 to 1 uM by Western blot analysis; type: cell-based; settings: dose 0.1-1 µM
[14] = biological target: T1, Casein kinase 2; assay: Inhibition of CK2 in human HL-60 cells assessed as decrease in survivin level at 0.1 to 1 uM by Western blot analysis; type: cell-based; settings: dose 0.1-1 µM
[15] = biological target: T1, Casein kinase 2; assay: Inhibition of CK2 in human HL-60 cells assessed as decrease in p-STAT3 level at 0.1 to 1 uM by Western blot analysis; type: cell-based; settings: dose 0.1-1 µM
[16] = biological target: T1, Casein kinase 2; assay: Inhibition of CK2 in human HL-60 cells assessed as increase in cleaved PARP level at 0.1 to 1 uM by Western blot analysis; type: cell-based; settings: dose 0.1-1 µM

Row | SMILES | IC50 [1] [nM] | further results
1 | O=C(O)c1cc(=O)c2ccccc2o1 [CHROMOCARB] | 5980 | 
2 | O=C(Nc1nc2ccc(C(F)(F)F)cc2s1)c1cc(=O)c2ccccc2o1 | 200 | 
3 | O=C(Nc1nc(-c2ccc(O)cc2)cs1)c1cc(=O)c2ccccc2o1 | 740 | 
4 | O=C(Nc1nc2cc(F)ccc2s1)c1cc(=O)c2ccccc2o1 | 110 | IC50 [2]: 310 nM; IC50 [3]: 440 nM; IC50 [4]: 850 nM; IC50 [5]: 420 nM; IC50 at 48 h [6]: 4340 nM
5 | O=C(Nc1nc(-c2ccc(C(F)(F)F)cc2)cs1)c1cc(=O)c2ccccc2o1 | 340 | 
6 | O=C(Nc1nc(-c2ccc(OC(F)(F)F)cc2)cs1)c1cc(=O)c2ccccc2o1 | 180 | IC50 [2]: 590 nM; IC50 [3]: 670 nM; IC50 [4]: 1040 nM; IC50 [5]: 490 nM; IC50 at 48 h [6]: 17700 nM
7 | COc1ccc2sc(NC(=O)c3cc(=O)c4ccccc4o3)nc2c1 | 80 | Activity [7]: Active; IC50 [2]: 250 nM; IC50 [3]: 380 nM; IC50 [4]: 660 nM; IC50 [5]: 390 nM; IC50 at 48 h [6]: 6250 nM; Activity [8]: Dde; Activity [9]: 80.7%; Activity [10]: Dde; inhibition [11]: Active; inhibition [12]: Active; inhibition [13]: Active; inhibition [14]: Active; inhibition [15]: Active; inhibition [16]: Active
8 | O=C(Nc1nc(-c2cccc(C(F)(F)F)c2)cs1)c1cc(=O)c2ccccc2o1 | 5550 | 
9 | O=C(Nc1nccs1)c1cc(=O)c2ccccc2o1 | 5210 | 
10 | Cc1ccc(-c2csc(NC(=O)c3cc(=O)c4ccccc4o3)n2)cc1 | 230 | 
11 | O=Cc1cnc(NC(=O)c2cc(=O)c3ccccc3o2)s1 | 4980 | 
12 | O=C(Nc1nc2ccc(OC(F)(F)F)cc2s1)c1cc(=O)c2ccccc2o1 | 160 | 
13 | O=C(Nc1ncco1)c1cc(=O)c2ccccc2o1 | 4880 | 
14 | N#Cc1cccc(-c2csc(NC(=O)c3cc(=O)c4ccccc4o3)n2)c1 | 5090 | 
15 | O=C(Nc1nc2ccc(Br)cc2s1)c1cc(=O)c2ccccc2o1 | 290 | 
16 | O=C(Nc1nc2cc(Br)ccc2s1)c1cc(=O)c2ccccc2o1 | 250 | 
17 | Cc1cnc(NC(=O)c2cc(=O)c3ccccc3o2)s1 | 7110 | 

Row | SMILES | IC50 [1] [nM] | further results
18 | Cc1cc2nc(NC(=O)c3cc(=O)c4ccccc4o3)sc2cc1C | 360 | 
19 | COc1ccc2nc(NC(=O)c3cc(=O)c4ccccc4o3)sc2c1 | 290 | 
20 | CC(C)c1csc(NC(=O)c2cc(=O)c3ccccc3o2)n1 | 5340 | 
21 | O=C(Nc1nc(-c2ccc(F)cc2)cs1)c1cc(=O)c2ccccc2o1 | 150 | IC50 [2]: 420 nM; IC50 [3]: 520 nM; IC50 [4]: 950 nM; IC50 [5]: 440 nM; IC50 at 48 h [6]: 7560 nM
22 | Cc1cccc(-c2csc(NC(=O)c3cc(=O)c4ccccc4o3)n2)c1 | 4120 | 
23 | O=C(Nc1nnco1)c1cc(=O)c2ccccc2o1 | 6880 | 
24 | O=C(Nc1nc(-c2ccccc2)cs1)c1cc(=O)c2ccccc2o1 | 610 | 
25 | COc1ccc(-c2csc(NC(=O)c3cc(=O)c4ccccc4o3)n2)cc1 | 590 | 
26 | O=C(Nc1ncc(Br)s1)c1cc(=O)c2ccccc2o1 | 5440 | 
27 | O=C(Nc1nc2ccc(F)cc2s1)c1cc(=O)c2ccccc2o1 | 240 | 
28 | Cc1csc(NC(=O)c2cc(=O)c3ccccc3o2)n1 | 6420 | 
29 | Cc1nc(NC(=O)c2cc(=O)c3ccccc3o2)sc1C | 6110 | 
30 | CNC(=O)c1cc(Oc2ccc(NC(=O)Nc3ccc(Cl)c(C(F)(F)F)c3)cc2)ccn1 [SORAFENIB] |  | Activity [9]: 73.2%
31 | Cc1ccc2nc(NC(=O)c3cc(=O)c4ccccc4o3)sc2c1 | 370 | 
32 | CC(C)Cc1csc(NC(=O)c2cc(=O)c3ccccc3o2)n1 | 4350 | 
33 | O=C(Nc1nc2ccccc2s1)c1cc(=O)c2ccccc2o1 | 310 | 
34 | Cc1nnc(NC(=O)c2cc(=O)c3ccccc3o2)o1 | 5200 | 
